Measurements: PubChem BioAssay (NCI)
Values joined by “and” are separate entries in the source; they are usually repeats but may differ in a detail not shown here. Equal values may be shown once.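 96-well plates; 48 h exposure; 5 concentrations. Endpoints by linear interpolation between flanking doses. Not reached: highest tested concentration assigned. GI50 is the concentration that inhibits growth by half. The concentration for full growth arrest is given as TGI.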

How the values were obtained:
Assay in all cases: DTP human tumour cell line panel, 48 h
[1] = test system: A498 renal
[2] = test system: SK-MEL-28 melanoma
[3] = test system: HT29 colon
[4] = test system: SF-295 CNS
[5] = test system: PC-3 prostate
[6] = test system: COLO 205 colon
[7] = test system: A549 NSCLC
[8] = test system: CCRF-CEM leukemia
[9] = test system: RPMI-8226 leukemia
[10] = test system: SK-MEL-2 melanoma

SMILES | TGI [1] [µM] | TGI [2] [µM] | TGI [3] [µM] | TGI [4] [µM] | TGI [5] [µM] | TGI [6] [µM] | TGI [7] [µM] | TGI [8] [µM] | GI50 [1] [nM] | GI50 [9] [nM] | TGI [9] [µM] | GI50 [2] [nM] | GI50 [3] [nM] | GI50 [4] [nM] | GI50 [5] [nM] | GI50 [6] [nM] | GI50 [7] [µM] | GI50 [10] [nM] | TGI [10] [µM] | GI50 [8]
C[C@]12CC[C@H](O)CC1=CC[C@@H]1C2CC[C@]2(C)c3nn(-c4ccc(F)cc4)nc3CC12 (stereo partly drawn) | > 100 | > 100 | 73 | > 100 | > 100 | > 100 | > 100 | > 100 | – | – | – | – | – | – | – | – | – | – | – | –
CCC1=C[C@@H]2CN(C1)Cc1c([nH]c3ccccc13)[C@@](C(=O)OC)(c1cc3c(cc1OC)N(C=O)[C@H]1[C@@](O)(C(=O)OC)[C@H](OC(C)=O)[C@]4(CC)[C@@H]5C[C@@H]5CN5CC[C@]31[C@@H]54)C2 | 0.0794 | > 6.25 | > 6.25 | – | > 6.25 | 0.00122 | > 6.25 | > 6.25 | 2.21 | < 0.625 | > 6.25 | 1.4 | < 0.625 | 1.56 | 0.826 | < 0.625 | 0.003 | < 0.625 | > 6.25 | < 0.625 nM
CN(C)NC1=NS(=O)(=O)c2cc3c(cc2S1)N(N(C)C)C(=O)c1cc2c(cc1N(N(C)C)C3=O)SC(NN(C)C)=NS2(=O)=O | > 10 | > 10 | > 10 | > 10 | > 10 | > 10 | > 10 | > 10 | – | – | > 10 | – | – | – | – | – | – | – | > 10 | –
COc1c(C)c2c(c(O)c1C/C=C(\C)CCC(=O)OCCN1CCOCC1)C(=O)OC2 | > 100 | > 100 | > 100 | > 100 | > 100 | > 100 | > 100 | > 100 | 520 | 891 | > 100 | 236 | 552 | 323 | 562 | 692 | 0.289 | 33600 | > 100 | 187 nM
O=C1C(=Cc2ccco2)C(=O)C2CCCCC12 (stereo not drawn) | > 100 | > 100 | > 100 | > 100 | > 100 | > 100 | > 100 | > 100 | – | – | > 100 | – | – | – | – | – | – | – | > 100 | –
COc1ccc(C2=NN(C(=O)COc3ccc(Cl)cc3)C(O)(c3cc(F)c(Cl)cc3Cl)C2)cc1OC (stereo not drawn) | 26.2 | 3.5 | 3.24 | 11.8 | 13.2 | 3.41 | 18.7 | 1.8 | 13100 | 1790 | 5.78 | 1850 | 1510 | – | 5490 | 1630 | 6.24 | 1110 | 3.24 | 218 nM
COc1ccc2c(c1)nc(N)c1c3cc(OC)c(OC)cc3cn21 | 0.592 | 19.9 | 11.2 | 16.2 | 16 | 0.521 | 16.6 | 11 | 13.5 | 96.8 | 12.8 | – | – | – | – | – | 0.0925 | 2130 | 24.1 | 10.1 nM
OC(C1=C/C(=C\c2ccncc2)c2ccccc21)c1ccncc1 (stereo not drawn) | 27.3 | 34.6 | 32.4 | 31.4 | 32.9 | 29.3 | 41.8 | 45.9 | – | – | 22.4 | – | – | – | – | – | – | – | 33.8 | –
CCN1C(=O)N(CC)C2C1NN=c1s/c(=C3\C(=O)N(CC(C)C)c4ccccc43)c(=O)n12 (stereo not drawn) | 0.875 | > 100 | > 100 | 11.4 | > 100 | 2.32 | > 100 | > 100 | 197 | 1420 | > 100 | 3280 | 396 | 542 | 514 | 401 | 0.957 | 2980 | 27.8 | 464 nM
Cc1cccc(C)c1NC(=O)/C(Cl)=C(/Cl)C(=O)O | 60.6 | 35.1 | 39.3 | > 56.1 | 50.4 | 11.4 | 45.3 | 14.1 | – | – | 37.1 | – | – | – | – | – | – | – | 31.5 | –
COc1cc(NC(=O)c2cc(OC)c3ccn(C)c3c2)cc2c1C[C@]1(C)CC[C@@H](O)C(C)(C)[C@H]1O2 | 7.15 | > 100 | > 100 | 2.95 | > 100 | 51.5 | > 100 | > 100 | 2850 | 1350 | 6.9 | 5290 | 7240 | 1010 | 6170 | 6120 | 10.3 | 6100 | 64.6 | 3750 nM
CCN(CC)CCOc1ccc(Nc2ncc3cc(-c4ccc(O)cc4)c(=O)n(C)c3n2)cc1 | 13.4 | 27.6 | 2.79 | 30.4 | 24.6 | 17.2 | 30.7 | > 26.4 | 1500 | 14500 | 44.5 | 10600 | 379 | 13900 | 831 | 1590 | 13.8 | 18900 | 39.5 | 845 nM
C/C=C(\C)C(=O)N[C@H]1[C@@H](OC(C)=O)C[C@]2(C)C3CC[C@@]4(C)C(CC[C@@H]4C(C)N(C)C)C3CCC2[C@H]1O (stereo partly drawn) | 20 | 3.67 | 6.55 | 14.9 | 24.2 | 5.91 | 20.3 | 21.2 | 2730 | – | – | 1830 | 738 | 3440 | 2880 | 2150 | 5.41 | 2300 | 6.38 | 3570 nM
COC1/C=C\C=C(/C)C(=O)Nc2cc3nc4ccc(Br)cc4oc-3c(c2=O)CC(C)CC(OC)C(O)C(C)/C=C(\C)C1OC(N)=O (stereo not drawn) | 30.9 | – | 7.91 | 25.8 | 24.5 | 0.169 | 22.7 | 1.9 | – | 8.67 | 16 | 0.391 | – | – | 5.74 | 0.903 | – | – | 24.5 | 2.47 nM and 18.2 nM
